Tests used:
[1] = tested on: Monochoria vaginalis, Presl.; assay: Preemergence weed control under flooded paddy conditions, MOOVA (Monochoria); assay type: in vivo; conditions: preemergence weeds, flooded paddy, rated three to four weeks after treatment
[2] = tested on: Oryza sativa, (L.) Tebonnet; assay: Rice tolerance to post-transplant applications under flooded paddy conditions (Example 187), ORYSAT (Rice, Tebonnet); conditions: rated three to four weeks after treatment
[3] = tested on: Echinochloa oryzoides (Ard.) Fritsch.; assay: Preemergence weed control under flooded paddy conditions, ECHORC (Watergrass (Calif.)); assay type: in vivo; conditions: preemergence weeds, flooded paddy, rated three to four weeks after treatment
[4] = tested on: Sagittaria pygmaea, L.; assay: Preemergence weed control under flooded paddy conditions, SAGPY (Arrowhead (Pygmaea)); assay type: in vivo; conditions: preemergence weeds, flooded paddy, rated three to four weeks after treatment
[5] = tested on: Cyperus serotinus, Rottb.; assay: Preemergence weed control under flooded paddy conditions, CYPSE (Flatsedge); assay type: in vivo; conditions: preemergence weeds, rated three to four weeks after treatment
[6] = tested on: Cyperus iria; assay: Preemergence weed control under flooded paddy conditions, CYPIR (Rice Flatsedge); assay type: in vivo; conditions: preemergence weeds, flooded paddy, rated three to four weeks after treatment
Also: meaning of each grade not given here.

Compound | herbicidal effect rating, MOOVA ([1]; Rate 0.0320 kg/ha) | herbicidal effect rating, MOOVA ([1]; Rate 0.0620 kg/ha) | herbicidal effect rating, MOOVA ([1]; Rate 0.1250 kg/ha) | herbicidal effect rating, MOOVA ([1]; Rate 0.2500 kg/ha) | herbicidal effect rating ORYSAT ([2]; Rate 0.0320 kg/ha) | herbicidal effect rating ORYSAT ([2]; Rate 0.0620 kg/ha) | herbicidal effect rating ORYSAT ([2]; Rate 0.1250 kg/ha) | herbicidal effect rating ORYSAT ([2]; Rate 0.2500 kg/ha) | herbicidal effect rating, ECHORC ([3]; Rate 0.0320 kg/ha) | herbicidal effect rating, ECHORC ([3]; Rate 0.0620 kg/ha) | herbicidal effect rating, ECHORC ([3]; Rate 0.1250 kg/ha) | herbicidal effect rating, ECHORC ([3]; Rate 0.2500 kg/ha) | herbicidal effect rating, SAGPY ([4]; Rate 0.0320 kg/ha) | herbicidal effect rating, SAGPY ([4]; Rate 0.0620 kg/ha) | herbicidal effect rating, SAGPY ([4]; Rate 0.1250 kg/ha) | herbicidal effect rating, SAGPY ([4]; Rate 0.2500 kg/ha) | herbicidal effect rating, CYPSE ([5]; Rate 0.0320 kg/ha) | herbicidal effect rating, CYPSE ([5]; Rate 0.0620 kg/ha) | herbicidal effect rating, CYPSE ([5]; Rate 0.1250 kg/ha) | herbicidal effect rating, CYPSE ([5]; Rate 0.2500 kg/ha) | also measured
CN(C)C(=O)c1nsc2ccc(-n3c(=O)cc(C(F)(F)F)n(C)c3=O)cc12 [Example 329, 1,2-Benzisothiazole-3-carboxamide, 5-[3,6-dihydro-3-methyl-2,6-dioxo-4-(trifluoromethyl)-1(2H)-pyrimidinyl]-N,N-dimethyl-] | 9.0 | 9.0 | 9.0 | 9.0 | 3.0 | 3.0 | 3.0 | 3.0 | 2.0 | 3.0 | 3.0 | 3.0 | 3.0 | 4.0 | 4.0 | 4.0 | 0.0 | 0.0 | 0.0 | 0.0 | herbicidal effect rating, CYPIR ([6]; Rate 0.0320 kg/ha): 0.0; herbicidal effect rating, CYPIR ([6]; Rate 0.0620 kg/ha): 0.0; herbicidal effect rating, CYPIR ([6]; Rate 0.1250 kg/ha): 0.0; herbicidal effect rating, CYPIR ([6]; Rate 0.2500 kg/ha): 0.0
CC(C)NC(=O)c1nsc2ccc(-n3c(=O)cc(C(F)(F)F)n(C)c3=O)cc12 [Example 330, 1,2-Benzisothiazole-3-carboxamide, 5-[3,6-dihydro-3-methyl-2,6-dioxo-4-(trifluoromethyl)-1(2H)-pyrimidinyl]-N-isopropyl-] | 9.0 | 9.0 | 9.0 | 9.0 | 7.0 | 7.0 | 7.0 | 7.0 | 7.0 | 7.0 | 9.0 | 9.0 | 0.0 | 0.0 | 0.0 | 0.0 | 5.0 | 5.0 | 5.0 | 5.0 | herbicidal effect rating, CYPIR ([6]; Rate 0.0320 kg/ha): 0.0; herbicidal effect rating, CYPIR ([6]; Rate 0.0620 kg/ha): 0.0; herbicidal effect rating, CYPIR ([6]; Rate 0.1250 kg/ha): 6.0; herbicidal effect rating, CYPIR ([6]; Rate 0.2500 kg/ha): 6.0
Cn1c(C(F)(F)F)cc(=O)n(-c2ccc3snc(C(=O)Nc4cc(C(C)(C)C)on4)c3c2)c1=O [Example 331, 1,2-Benzisothiazole-3-carboxamide, N-(5-tert-butylisoxazol-3-yl)-5-[3,6-dihydro-3-methyl-2,6-dioxo-4-(trifluoromethyl)-1(2H)-pyrimidinyl]-] | 9.0 | 9.0 | 9.0 | 9.0 | 0.0 | 0.0 | 0.0 | 1.0 | 0.0 | 2.0 | 4.0 | 8.0 | 0.0 | 0.0 | 0.0 | 0.0 | 0.0 | 0.0 | 0.0 | 0.0 | herbicidal effect rating, CYPIR ([6]; Rate 0.0320 kg/ha): 0.0; herbicidal effect rating, CYPIR ([6]; Rate 0.0620 kg/ha): 0.0; herbicidal effect rating, CYPIR ([6]; Rate 0.1250 kg/ha): 5.0; herbicidal effect rating, CYPIR ([6]; Rate 0.2500 kg/ha): 9.0
